Reference: patent US10315146B2, “Filter medium for deactivating allergens” (Carl Freudenberg KG, priority 2015, dated 2019)

Legend:
[1] = biological target: T1, Antigen Der p1 from excrement (Dermatophagoides pteronyssinus, UniProt P08176); assay: ELISA test of allergen-deactivating efficiency of the filter medium (house dust mite antigen); type: biochemical; conditions: text summary of Table 4; compared with the acids used according to the invention
T1 construct: tissue Allergon AB, Ängelholm, Sweden; host or cells: house dust mite excrement
T1 sequence (P08176 99-320): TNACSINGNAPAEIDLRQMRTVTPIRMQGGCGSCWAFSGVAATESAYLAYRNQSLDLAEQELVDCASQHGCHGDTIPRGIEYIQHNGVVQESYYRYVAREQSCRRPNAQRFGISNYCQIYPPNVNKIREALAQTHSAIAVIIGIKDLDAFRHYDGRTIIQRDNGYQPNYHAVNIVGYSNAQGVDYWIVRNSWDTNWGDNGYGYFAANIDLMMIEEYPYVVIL
Excerpt: In the examples, ELISA (enzyme-linked immunosorbent assay) is used as a method for measuring the deactivation abilities of different active ingredient compositions in respect of particular allergens.
The ELISA method can measure allergen concentrations by assessing color changes due to antigen-antibody reactions.
A carrier non-woven fabric of polyester spunbonded non-woven (weight per unit area 125 g/m^2) is finished in an allergen-deactivating manner with a mixture of lauric acid and citric acid. […]
The absorption of the microplate is established according to the specifications of the ELISA kit manufacturer using a microplate reading device at a wavelength of 405 nm and thus the allergen concentration (antigen content) of each sample is determined.
To determine the allergen-deactivating efficiency, each antigen concentration of the sample reaction solution is determined according to the specifications of the ELISA kit manufacturer using a microplate reading device at a wavelength of 405 nm.
Here, the starting concentration and the measured allergen concentration of the sample correspond to an antigen-specific concentration in ng/ml. […]

[2] = system: Antigen Bet v1 from pollen; assay: ELISA test of allergen-deactivating efficiency of the filter medium (birch pollen antigen); type: biochemical; conditions: summary of Table 1; acid on filter medium in dry state
Protocol: A carrier non-woven fabric of polyester spunbonded non-woven (weight per unit area 125 g/m^2) is finished in an allergen-deactivating manner with a mixture of lauric acid and citric acid. The allergen-deactivating doping of the carrier non-woven is carried out by applying a mixture of the active ingredients in aqueous solution to the carrier non-woven and subsequently drying the now finished non-woven fabric to thereby obtain a sample for analysis.
The size of the sample used in the test is 10 mm×10 mm.
Allergen sources used and antigens to be tested: • a) Allergen house dust mite: Antigen Der p1 from excrement • b) Allergen birch pollen: Antigen Bet v1 from pollen
Allergen sources from Allergon AB, Ängelholm, Sweden were used. […]

SMILES | immunological effect [1] | allergen-eliminating effect [2]
O=C([O-])[O-].[K+].[K+] [potassium carbonate] | significantly lower than that of the acids used according to the invention | 
O=C(O)CC(O)(CC(=O)O)C(=O)O [citric acid] |  | high allergen-eliminating effect
O=C(O)CC(O)C(=O)O (stereo not drawn) [malic acid] |  | high allergen-eliminating effect
